The values that follow are results of earlier work, collected in US6872408B2, “Method of treating bipolar disorders using deuterium-substituted carbonate” (priority 2001, dated 2005).

The subject of series [1] is patients. Particulars: patients treated for mania.
Series [2] relates to mice.
Series [3] concerns mouse.
For series [4], the system named is biological clock. Conditions: in vivo.
In series [5] the test system is deer mice. Particulars: increasing ratio of D2O to H2O in drinking water.
Series [6] concerns patients with bipolar disorder.

Consider `CCCC(CCC)C(=O)O` [DEPAKOTE, valproic acid], for which the side effect entry in series [1] was “frequently causes blood dyscrasias”.
For the compound `[2H]O[2H]` [Deuterium oxide], the “effect on the period and entrainment of the light-dark (LD) cycle” value in series [2] is recorded as “chronomutagenic effect”. The spontaneous locomotor activity result in series [3] is “suppressed”. Besides, the “effect on length of the biological clock” value in series [4] is “lengthen the biological clock”. Besides, in series [5], the “effect of D2O on the biological clock” value was “dose dependent and reversible”.
Regarding `CCO` [ethanol], the “effect on length of the biological clock” value in series [4] was “lengthen the biological clock”.
In the case of `[Li]` [lithium], the “time for effects to take affect” value in series [6] (patients with bipolar disorder) is on record as “up to 2 weeks”. Also, the “patients receiving beneficial effects” value in series [6] (patients with bipolar disorder prescribed lithium) was “up to 80%”.
For the compound `CC(C)[C@@H]1NC(=O)[C@H](C)OC(=O)[C@@H](C(C)C)NC(=O)[C@@H](C(C)C)OC(=O)[C@H](C(C)C)NC(=O)[C@H](C)OC(=O)[C@@H](C(C)C)NC(=O)[C@@H](C(C)C)OC(=O)[C@H](C(C)C)NC(=O)[C@H](C)OC(=O)[C@@H](C(C)C)NC(=O)[C@@H](C(C)C)OC1=O` [valinomycin], the “effect on length of the biological clock” value in series [4] was “lengthen the biological clock”.
lithium salts: the “effect on length of the biological clock” value in series [4] is given as “lengthen the biological clock”.
